This is an account of results in the OligoGym collection.

HELM strings list units from the 5' end as sugar, base in round brackets, then linkage (d deoxyribose, r ribose, m 2'-O-methyl, p phosphodiester). Strings are as the collection lists them; they lack the last nucleoside at the 3' end of the tested compound. [moe] = 2'-O-(2-methoxyethyl) (MOE); [sp] = phosphorothioate linkage; [m5C] = 5-methylcytosine

The target of this data set is PRNP. Description: mouse, dose not given. To be noted: ASO.

On to “RNA1{[moe](A)[sp].[moe]([m5C])p.[moe](T)p.[moe]([m5C])p.[moe](T)[sp].d(A)[sp].d(T)[sp].d(G)[sp].d(T)[sp].d(T)[sp].d(T)[sp].d(T)[sp].d([m5C])[sp].d([m5C])[sp].d(A)[sp].[moe](G)p.[moe](T)p.[moe](G)[sp].[moe]([m5C])}$$$$ (last 3' nucleoside missing)”, for which the 3 h FOB score came out at 2 score 0-7.
With “RNA1{[moe](A)[sp].[moe]([m5C])p.[moe](T)p.[moe]([m5C])p.[moe](T)p.[moe](A)p.d(T)[sp].d(G)[sp].d(T)[sp].d(T)[sp].d(T)[sp].d(T)[sp].d([m5C])[sp].d([m5C])[sp].d(A)[sp].d(G)[sp].[moe](T)p.[moe](G)[sp].[moe]([m5C])}$$$$ (last 3' nucleoside missing)”, the 3 h FOB score worked out at 1.25 score 0-7.
Substance “RNA1{[moe](A)[sp].[moe]([m5C])p.[moe](T)p.[moe]([m5C])p.[moe](T)p.d(A)[sp].d(T)[sp].d(G)[sp].d(T)[sp].d(T)[sp].d(T)[sp].d(T)[sp].d([m5C])[sp].d([m5C])[sp].[moe](A)[sp].[moe](G)p.[moe](T)p.[moe](G)}$$$$ (last 3' nucleoside missing)” gave a 3 h FOB score of 2.25 score 0-7.
The result for “RNA1{[moe](A)[sp].[moe]([m5C])p.[moe](T)p.[moe]([m5C])p.d(T)[sp].d(A)[sp].d(T)[sp].d(G)[sp].d(T)[sp].d(T)[sp].d(T)[sp].d(T)[sp].d([m5C])[sp].d([m5C])[sp].[moe](A)p.[moe](G)p.[moe](T)p.[moe](G)[sp].[moe]([m5C])}$$$$ (last 3' nucleoside missing)” reads 1.5 score 0-7; that for “RNA1{[moe](A)[sp].[moe]([m5C])p.[moe](T)p.d([m5C])[sp].d(T)[sp].d(A)[sp].d(T)[sp].d(G)[sp].d(T)[sp].d(T)[sp].d(T)[sp].d(T)[sp].d([m5C])[sp].[moe]([m5C])p.[moe](A)p.[moe](G)p.[moe](T)p.[moe](G)[sp].[moe]([m5C])}$$$$ (last 3' nucleoside missing)”, 1.5 score 0-7.
The result for “RNA1{[moe](A)[sp].[moe]([m5C])p.[moe]([m5C])p.[moe](A)p.[moe](T)[sp].d(A)[sp].d(T)[sp].d(A)[sp].d([m5C])[sp].d([m5C])[sp].d(A)[sp].d(T)[sp].d(G)[sp].d(T)[sp].d(A)[sp].[moe]([m5C])p.[moe](A)p.[moe](G)[sp].[moe](T)}$$$$ (last 3' nucleoside missing)” reads 4.75 score 0-7.
The result for “RNA1{[moe](G)[sp].[moe](A)p.[moe](G)p.[moe](T)p.[moe](G)[sp].d(A)[sp].d(A)[sp].d(T)[sp].d(T)[sp].d(A)[sp].d(T)[sp].d(T)[sp].d(T)[sp].d(T)[sp].d([m5C])[sp].[moe](T)p.[moe](T)p.[moe]([m5C])[sp].[moe](T)}$$$$ (last 3' nucleoside missing)” reads 2 score 0-7; that for “RNA1{[moe](G)[sp].[moe](A)p.[moe](G)p.[moe]([m5C])p.[moe](A)[sp].d(A)[sp].d(T)[sp].d(A)[sp].d(T)[sp].d(A)[sp].d(T)[sp].d(T)[sp].d([m5C])[sp].d(A)[sp].d([m5C])[sp].[moe]([m5C])p.[moe](A)p.[moe](A)[sp].[moe](A)}$$$$ (last 3' nucleoside missing)”, 2.5 score 0-7.
Substance “RNA1{[moe](G)[sp].[moe](A)p.[moe](T)p.[moe](T)p.[moe](G)[sp].d(T)[sp].d([m5C])[sp].d(T)[sp].d([m5C])[sp].d([m5C])[sp].d([m5C])[sp].d(T)[sp].d(A)[sp].d(T)[sp].d(T)[sp].[moe]([m5C])p.[moe](T)p.[moe](T)[sp].[moe](T)}$$$$ (last 3' nucleoside missing)” gave a 3 h FOB score of 5.5 score 0-7.
“RNA1{[moe](G)[sp].[moe](G)p.[moe](A)p.[moe](A)p.[moe](T)[sp].d(G)[sp].d([m5C])[sp].d([m5C])[sp].d(A)[sp].d([m5C])[sp].d(A)[sp].d(T)[sp].d(A)[sp].d(T)[sp].d(A)[sp].[moe](G)p.[moe](G)p.[moe](G)[sp].[moe](T)}$$$$ (last 3' nucleoside missing)”: the 3 h FOB score was found to be 4 score 0-7.
For “RNA1{[moe](G)[sp].[moe](G)p.[moe](G)p.[moe](A)p.[moe](T)[sp].d(G)[sp].d(A)[sp].d(T)[sp].d([m5C])[sp].d(T)[sp].d(G)[sp].d([m5C])[sp].d(A)[sp].d(A)[sp].d(T)[sp].[moe](T)p.[moe](G)p.[moe](T)[sp].[moe](T)}$$$$ (last 3' nucleoside missing)”, the 3 h FOB score was 4 score 0-7.
Regarding “RNA1{[moe](G)[sp].[moe](G)p.[moe](T)p.[moe](G)p.[moe](A)[sp].d(T)[sp].d(T)[sp].d(T)[sp].d(T)[sp].d(T)[sp].d(T)[sp].d([m5C])[sp].d([m5C])[sp].d(T)[sp].d(T)[sp].[moe](T)p.[moe]([m5C])p.[moe](T)[sp].[moe](T)}$$$$ (last 3' nucleoside missing)”, the 3 h FOB score was found to be 1 score 0-7.
Then “RNA1{[moe](G)[sp].[moe](G)p.[moe](T)p.[moe](T)p.[moe](A)[sp].d(G)[sp].d([m5C])[sp].d(T)[sp].d(T)[sp].d(T)[sp].d(T)[sp].d(T)[sp].d(T)[sp].d(T)[sp].d([m5C])[sp].[moe](A)p.[moe]([m5C])p.[moe](T)[sp].[moe](G)}$$$$ (last 3' nucleoside missing)”, with 4.75 score 0-7.
The result for “RNA1{[moe](G)[sp].[moe](G)p.[moe](T)p.[moe](T)p.[moe](A)[sp].d([m5C])[sp].d(A)[sp].d(T)[sp].d(A)[sp].d(A)[sp].d(T)[sp].d(G)[sp].d(T)[sp].d(T)[sp].d([m5C])[sp].[moe](A)p.[moe](T)p.[moe](T)[sp].[moe](T)}$$$$ (last 3' nucleoside missing)” reads 5 score 0-7; that for “RNA1{[moe](G)[sp].[moe](G)p.[moe](T)p.[moe](T)p.[moe](A)p.[moe]([m5C])p.d(A)[sp].d(T)[sp].d(A)[sp].d(A)[sp].d(T)[sp].d(G)[sp].d(T)[sp].d(T)[sp].d([m5C])[sp].d(A)[sp].[moe](T)p.[moe](T)[sp].[moe](T)}$$$$ (last 3' nucleoside missing)”, 3.75 score 0-7; that for “RNA1{[moe](G)[sp].[moe](G)p.[moe](T)p.[moe](T)p.[moe](T)[sp].d(T)[sp].d(T)[sp].d(G)[sp].d(A)[sp].d([m5C])[sp].d(A)[sp].d(A)[sp].d(T)[sp].d(T)[sp].d(A)[sp].[moe](T)p.[moe](G)p.[moe](A)[sp].[moe](G)}$$$$ (last 3' nucleoside missing)”, 5 score 0-7.
The result for “RNA1{[moe](G)[sp].[moe](G)p.[moe](T)p.[moe](T)p.[moe](T)[sp].d(T)[sp].d(T)[sp].d(G)[sp].d(G)[sp].d([m5C])[sp].d(T)[sp].d(T)[sp].d(A)[sp].d([m5C])[sp].d(T)[sp].[moe]([m5C])p.[moe](G)p.[moe](G)[sp].[moe]([m5C])}$$$$ (last 3' nucleoside missing)” reads 4 score 0-7; that for “RNA1{[moe](G)[sp].[moe](G)p.[moe](T)p.[moe](T)p.[moe]([m5C])[sp].d(A)[sp].d(G)[sp].d(T)[sp].d(G)[sp].d(T)[sp].d(T)[sp].d(G)[sp].d(T)[sp].d(G)[sp].d(A)[sp].[moe]([m5C])p.[moe](A)p.[moe](A)[sp].[moe](T)}$$$$ (last 3' nucleoside missing)”, 7 score 0-7.
“RNA1{[moe](G)[sp].[moe](G)p.[moe]([m5C])p.[moe](A)p.[moe](A)[sp].d(A)[sp].d(G)[sp].d(G)[sp].d(T)[sp].d(A)[sp].d(T)[sp].d(T)[sp].d(T)[sp].d([m5C])[sp].d(A)[sp].[moe](G)p.[moe](A)p.[moe]([m5C])[sp].[moe](T)}$$$$ (last 3' nucleoside missing)”: the 3 h FOB score came out at 6.5 score 0-7.
As to “RNA1{[moe](G)[sp].[moe](G)p.[moe]([m5C])p.[moe](A)p.[moe]([m5C])[sp].d(T)[sp].d(T)[sp].d(T)[sp].d([m5C])[sp].d(T)[sp].d(T)[sp].d(T)[sp].d(T)[sp].d(T)[sp].d(A)[sp].[moe](T)p.[moe](T)p.[moe](T)[sp].[moe]([m5C])}$$$$ (last 3' nucleoside missing)”, the 3 h FOB score amounted to 1 score 0-7.
Then “RNA1{[moe](G)[sp].[moe](G)p.[moe]([m5C])p.[moe](T)p.[moe](T)[sp].d(A)[sp].d([m5C])[sp].d(T)[sp].d([m5C])[sp].d(G)[sp].d(G)[sp].d([m5C])[sp].d(T)[sp].d(T)[sp].d(G)[sp].[moe](T)p.[moe](T)p.[moe]([m5C])[sp].[moe]([m5C])}$$$$ (last 3' nucleoside missing)”, with 3.75 score 0-7.
The result for “RNA1{[moe](G)[sp].[moe](T)[sp].[moe]([m5C])p.[moe](A)p.[moe](G)p.[moe](T)p.[moe](T)p.d(T)[sp].d(T)[sp].d(T)[sp].d([m5C])[sp].d([m5C])[sp].d([m5C])[sp].d([m5C])[sp].d(A)[sp].d([m5C])[sp].d(A)[sp].[moe](T)p.[moe](A)}$$$$ (last 3' nucleoside missing)” reads 0 score 0-7; that for “RNA1{[moe](G)[sp].[moe](T)p.[moe](A)p.[moe](T)p.[moe](A)[sp].d(A)[sp].d(T)[sp].d(T)[sp].d(T)[sp].d(T)[sp].d(T)[sp].d(T)[sp].d(T)[sp].d(A)[sp].d([m5C])[sp].[moe]([m5C])p.[moe](T)p.[moe](G)[sp].[moe](G)}$$$$ (last 3' nucleoside missing)”, 0 score 0-7.
Then “RNA1{[moe](G)[sp].[moe](T)p.[moe](A)p.[moe](T)p.[moe](G)[sp].d(T)[sp].d([m5C])[sp].d(A)[sp].d(A)[sp].d(A)[sp].d(A)[sp].d(T)[sp].d([m5C])[sp].d(A)[sp].d(T)[sp].[moe](T)p.[moe]([m5C])p.[moe](T)[sp].[moe](G)}$$$$ (last 3' nucleoside missing)”, with 6 score 0-7; and “RNA1{[moe](G)[sp].[moe](T)p.[moe](A)p.[moe](T)p.[moe]([m5C])[sp].d(A)[sp].d(T)[sp].d(G)[sp].d(T)[sp].d(G)[sp].d(G)[sp].d([m5C])[sp].d([m5C])[sp].d(T)[sp].d([m5C])[sp].[moe]([m5C])p.[moe](T)p.[moe](A)[sp].[moe](A)}$$$$ (last 3' nucleoside missing)”, with 5.5 score 0-7.
